Patent publication US5602106A, “16-membered macrolide derivatives” (priority 1993, dated 1997)
Converted amounts (≈) assume the structure as drawn. Read-outs that look alike come from different tables or passages of the source.

Legend:
Format in all cases: cell-based
[1] = tested on: clinically important Gram-positive bacteria; assay: Antimicrobial activity / growth inhibition
Description: (§1) The effect of the first aspect of the present invention resides in the creation of a novel and useful 16-membered macrolide derivative. Antimicrobial activities of the compounds of the present invention were determined by measuring minimum inhibitory concentration (MIC). Minimum inhibitory concentration was determined by the agar plate dilution method in the following manner.
(§2) Test strains were subjected to seed culture using Sensitivity test broth (STB, Nissui Pharmaceutical) except that the strains belonging to the genus Streptococcus, Branhamella and Haemophilus were cultured on blood agar plate. A 5 μl portion of cell suspension of the test strains having about 10^6 CFU/ml was inoculated into Sensitivity disk agar (SDA, Nissui Pharmaceutical) supplemented with 5% horse blood and incubated at 37° C. for 20 hours. Then, MIC was measured. […] Antimicrobial activities in vitro of the compounds (1) and (2) are shown in Table 1, and those of the compounds (3) and (4) in Table 3.

S. aureus 209P JC-1 = assay: MIC, agar plate dilution method; conditions: for MIC: Staphylococcus aureus, 209P, 20 h
Description: as §1, §2

S. epidermidis ATCC14990 = assay: MIC, agar plate dilution method; conditions: Staphylococcus epidermidis, ATCC14990, 20 h, read-out: Antimicrobial activity (MIC), 37° C., 20 hours, SDA with 5% horse blood
Description: as §1, §2

S. aureus MS15009/pMS98 = assay: MIC, agar plate dilution method; conditions: Staphylococcus aureus, MS15009/PMS98, 20 h, read-out: Antimicrobial activity (MIC), 37° C., 20 hours, SDA with 5% horse blood
Description: as §1, §2

S. pneumoniae Type 1 = assay: MIC, agar plate dilution method; conditions: Streptococcus pneumoniae
Description: as §1, §2

S. aureus MS15026 = assay: MIC, agar plate dilution method; conditions: Staphylococcus aureus, 37° C., 20 hours, SDA with 5% horse blood, read-out: Antimicrobial activity (MIC)
Description: as §1, §2

S. aureus M133 = assay: MIC, agar plate dilution method; conditions: Staphylococcus aureus, M133, 20 h, read-out: Antimicrobial activity (MIC), 37° C., 20 hours, SDA with 5% horse blood
Description: as §1, §2

B. catarrhalis W-0506 = assay: MIC, agar plate dilution method; conditions: for MIC: Moraxella catarrhalis, W0506, 20 h, read-out: Antimicrobial activity (MIC), 37° C., 20 hours, SDA with 5% horse blood
Description: as §1, §2

S. aureus MS15027 = assay: MIC, agar plate dilution method; conditions: Staphylococcus aureus
Description: as §1, §2

H. influenzae Type b = assay: MIC, agar plate dilution method; conditions: Haemophilus influenzae
Description: as §1, §2

M. luteus ATCC9341 = assay: MIC, agar plate dilution method; conditions: Micrococcus luteus, ATCC9341; 37° C., 20 hours, SDA with 5% horse blood; read-out: Antimicrobial activity (MIC)
Description: as §1, §2

E. faecalis W-73 = assay: MIC, agar plate dilution method; conditions: Enterococcus faecalis, W73, 20 h, read-out: Antimicrobial activity (MIC)
Description: as §1, §2

B. catarrhalis W-0500 = assay: MIC, agar plate dilution method; conditions: Moraxella catarrhalis, W0500, 20 h, read-out: Antimicrobial activity (MIC), 37° C., 20 hours, SDA with 5% horse blood
Description: as §1, §2

S. aureus M126 = assay: MIC, agar plate dilution method; conditions: Staphylococcus aureus, 37° C., 20 hours, SDA with 5% horse blood, read-out: Antimicrobial activity (MIC)
Description: as §1, §2

K. pneumoniae PCI602 = assay: MIC, agar plate dilution method; conditions: 37° C., SDA with 5% horse blood; for MIC: Klebsiella pneumoniae, PCI602, 20 h, read-out: Antimicrobial activity (MIC)
Description: as §1, §2

S. aureus MS15009/pMS99 = assay: MIC, agar plate dilution method; conditions: Staphylococcus aureus, MS15009/PMS99, 20 h, read-out: Antimicrobial activity (MIC)
Description: as §1, §2

S. pneumoniae IP692 = assay: MIC, agar plate dilution method; conditions: Streptococcus pneumoniae, IP692, 20 h
Description: as §1, §2

Streptococcus pneumoniae = assay: Antimicrobial activity in vitro; conditions: compared with MDM and LM-A7
Description: as §1, §2

test strains = assay: Antimicrobial activity in vitro, test strains overall
Description: as §1, §2

Branhamella catarrhalis = assay: Antimicrobial activity in vitro; conditions: vs compound (5)
Description: as §1, §2

B. catarrhalis W-0400 = assay: MIC, agar plate dilution method; conditions: Moraxella catarrhalis, W0400, 20 h, read-out: Antimicrobial activity (MIC)
Description: as §1, §2

E. coli NIHJ JC-2 = assay: MIC, agar plate dilution method; conditions: 37° C., SDA with 5% horse blood; for MIC: Escherichia coli, NIHJJC2, 20 h, read-out: Antimicrobial activity (MIC)
Description: as §1, §2

H. influenzae 9334 = assay: MIC, agar plate dilution method
Description: as §1, §2

S. pyogenes Cook = assay: MIC, agar plate dilution method; conditions: Streptococcus pyogenes; 37° C., 20 hours, SDA with 5% horse blood; read-out: Antimicrobial activity (MIC)
Description: as §1, §2

[2] = read-out: Antimicrobial activity (MIC), 37° C., 20 hours, SDA with 5% horse blood
[3] = MS15027, 20 h, read-out: Antimicrobial activity (MIC), 37° C., 20 hours, SDA with 5% horse blood
[4] = 20 h, read-out: Antimicrobial activity (MIC), 37° C., 20 hours, SDA with 5% horse blood
[5] = 37° C., 20 hours, SDA with 5% horse blood
[6] = 37° C., 20 hours, SDA with 5% horse blood, read-out: Antimicrobial activity (MIC)
[7] = TYPE1, 37° C., 20 hours, SDA with 5% horse blood, read-out: Antimicrobial activity (MIC)

Structure (SMILES): CCC(=O)O[C@@H]1CC(=O)O[C@H](C)C/C=C/C=C/[C@H](O)[C@H](C)C[C@H](CC=O)[C@H](O[C@@H]2O[C@H](C)[C@@H](O[C@H]3C[C@@](C)(OC)[C@@H](OC(=O)CC)[C@H](C)O3)[C@H](N(C)C)[C@H]2O)[C@H]1OC [(1), 3"-O-methylmidecamycin A1]
- antimicrobial activities (in words) [1]: strong antimicrobial activities
- MIC (S. aureus 209P JC-1; [2]): 0.2 µg/mL (≈ 0.242 µM)
- MIC (S. epidermidis ATCC14990): 0.78 µg/mL (≈ 0.942 µM)
- MIC (S. aureus MS15009/pMS98): 0.2 µg/mL (≈ 0.242 µM)
- MIC (S. pneumoniae Type 1; TYPE1, 20 h, read-out: Antimicrobial activity (MIC), 37° C., 20 hours, SDA with 5% horse blood): 0.1 µg/mL (≈ 0.121 µM)
- MIC (S. aureus MS15026): > 100 µg/mL
- MIC (S. aureus M133): 0.39 µg/mL (≈ 0.471 µM)
- MIC (B. catarrhalis W-0506): 0.78 µg/mL (≈ 0.942 µM)
- MIC (S. aureus MS15027; [3]): 0.39 µg/mL (≈ 0.471 µM)
- MIC (H. influenzae Type b; [4]): 12.5 µg/mL (≈ 15.1 µM)
- MIC (M. luteus ATCC9341): 0.05 µg/mL (≈ 0.0604 µM)
- MIC (E. faecalis W-73; [5]): 1.56 µg/mL (≈ 1.88 µM)
- MIC (B. catarrhalis W-0500): 0.78 µg/mL (≈ 0.942 µM)
- MIC (S. aureus M126): > 100 µg/mL
- MIC (K. pneumoniae PCI602): > 100 µg/mL
- MIC (S. aureus MS15009/pMS99): > 100 µg/mL
- MIC (S. pneumoniae IP692; [2]): 0.1 µg/mL (≈ 0.121 µM)
- antimicrobial activity against Streptococcus pneumoniae (Streptococcus pneumoniae): considerably improved antimicrobial activity
- antimicrobial activities in vitro compared with corresponding compounds having free 3"-hydroxyl (MDM, LM-A7) (test strains; against most of test strains): twice as high

Structure (SMILES): CO[C@@H]1[C@@H](O[C@@H]2O[C@H](C)[C@@H](O[C@H]3C[C@@](C)(OC)[C@@H](OC(=O)CC(C)C)[C@H](C)O3)[C@H](N(C)C)[C@H]2O)[C@@H](CC=O)C[C@@H](C)[C@@H](OC(C)=O)/C=C/C=C/C[C@@H](C)OC(=O)C[C@H]1OC(C)=O [(11), 9-O-acetyl-3"-O-methyljosamycin]
- antimicrobial activity against Branhamella catarrhalis compared with compound (5) (Branhamella catarrhalis): slightly superior to that of the compound (5)
- antimicrobial activities in vitro compared with miokamycin (test strains; vs miokamycin (MOM)): comparable to or higher

Structure (SMILES): CCCC(=O)O[C@H]1[C@H](C)O[C@@H](O[C@H]2[C@H](N(C)C)[C@@H](O)[C@H](O[C@H]3[C@@H](CC=O)C[C@@H](C)[C@@H](O)/C=C/C=C/C[C@@H](C)OC(=O)C[C@@H](O)[C@@H]3OC)O[C@@H]2C)C[C@@]1(C)OC [(33), 3"-O-methylleucomycin A5]
- MIC (B. catarrhalis W-0400): 0.1 µg/mL (≈ 0.127 µM)
- MIC (S. aureus 209P JC-1; [6]): 0.05 µg/mL (≈ 0.0636 µM)
- MIC (S. epidermidis ATCC14990): 0.2 µg/mL (≈ 0.254 µM)
- MIC (S. aureus MS15009/pMS98): 0.1 µg/mL (≈ 0.127 µM)
- MIC (S. pneumoniae Type 1; [7]): < 0.025 µg/mL
- MIC (S. aureus MS15026): > 100 µg/mL
- MIC (S. aureus M133): 0.2 µg/mL (≈ 0.254 µM)
- MIC (E. coli NIHJ JC-2): > 100 µg/mL
- MIC (H. influenzae 9334; Haemophilus influenzae, 9334, 20 h, read-out: Antimicrobial activity (MIC), 37° C., 20 hours, SDA with 5% horse blood): 0.2 µg/mL (≈ 0.254 µM)
- MIC (B. catarrhalis W-0506): 0.2 µg/mL (≈ 0.254 µM)
- MIC (S. aureus MS15027; [3]): 0.2 µg/mL (≈ 0.254 µM)
- MIC (H. influenzae Type b; [6]): 1.56 µg/mL (≈ 1.98 µM)
- MIC (M. luteus ATCC9341): < 0.025 µg/mL
- MIC (E. faecalis W-73): 0.78 µg/mL (≈ 0.992 µM)
- MIC (S. pyogenes Cook): < 0.025 µg/mL
- MIC (S. aureus M126): > 100 µg/mL
- MIC (K. pneumoniae PCI602): 100 µg/mL (≈ 127 µM)
- MIC (S. aureus MS15009/pMS99): > 100 µg/mL
- MIC (S. pneumoniae IP692; [6]): < 0.025 µg/mL
- antimicrobial activities compared with clarithromycin (test strains; vs clarithromycin): completely comparable to those of clarithromycin
- antimicrobial activities in comparison with compound (2) (test strains; vs compound (2)): generally improved antimicrobial activities
- antimicrobial activities in comparison with rokitamycin (test strains; vs rokitamycin): markedly excellent antimicrobial activities in vitro

Structure (SMILES): CC[C@H]1OC(=O)[C@H](C)[C@@H](O[C@H]2C[C@@](C)(OC)[C@@H](O)[C@H](C)O2)[C@H](C)[C@@H](O[C@@H]2O[C@H](C)C[C@H](N(C)C)[C@H]2O)[C@](C)(OC)C[C@@H](C)C(=O)[C@H](C)[C@@H](O)[C@]1(C)O [CAM, clarithromycin, reference compound]
- MIC (B. catarrhalis W-0400): 0.1 µg/mL (≈ 0.134 µM)
- Antimicrobial activity (MIC) (S. aureus 209P JC-1; [5]): 0.10 µg/mL
- MIC (S. aureus 209P JC-1; [6]): 0.05 µg/mL (≈ 0.0668 µM)
- MIC (S. epidermidis ATCC14990): 0.1 µg/mL (≈ 0.134 µM)
- MIC (S. aureus MS15009/pMS98): > 100 µg/mL
- MIC (S. pneumoniae Type 1; [7]): < 0.025 µg/mL
- MIC (S. aureus MS15026): > 100 µg/mL
- Antimicrobial activity (MIC) (E. coli NIHJ JC-2; 20 hours): 50 µg/mL
- MIC (E. coli NIHJ JC-2): 100 µg/mL (≈ 134 µM)
- MIC (H. influenzae 9334; Haemophilus influenzae, 9334, 37° C., 20 hours, SDA with 5% horse blood, read-out: Antimicrobial activity (MIC)): 1.56 µg/mL (≈ 2.09 µM)
- Antimicrobial activity (MIC) (B. catarrhalis W-0506; [5]): 0.10 µg/mL
- MIC (B. catarrhalis W-0506): 0.2 µg/mL (≈ 0.267 µM)
- MIC (S. aureus MS15027; [3]): > 100 µg/mL
- MIC (S. aureus MS15027; MS15027, 37° C., 20 hours, SDA with 5% horse blood, read-out: Antimicrobial activity (MIC)): 1.56 µg/mL (≈ 2.09 µM)
- MIC (H. influenzae Type b; [4]): 6.25 µg/mL (≈ 8.36 µM)
- MIC (M. luteus ATCC9341): < 0.025 µg/mL
- MIC (E. faecalis W-73): 0.78 µg/mL (≈ 1.04 µM)
- MIC (B. catarrhalis W-0500): 0.2 µg/mL (≈ 0.267 µM)
- MIC (S. pyogenes Cook): < 0.025 µg/mL
- MIC (S. aureus M126): > 100 µg/mL
- Antimicrobial activity (MIC) (K. pneumoniae PCI602; 20 hours): 50 µg/mL
- MIC (K. pneumoniae PCI602): 100 µg/mL (≈ 134 µM)
- MIC (S. aureus MS15009/pMS99): > 100 µg/mL
- MIC (S. pneumoniae IP692; [6]): < 0.025 µg/mL
